Source: patent US20200316087A1, “NOVEL COMBINATION THERAPY FOR ANXIETY DISORDERS, EPILEPSY, AND PAIN” (priority 2017, published 2020)

Legend:
[1] = system: human (α2), or rat (α1, α3, α5, γ2L, β3) GABAA receptor subunits; assay: Whole-cell patch-clamp GABA current responses in transfected HEK-293T cells; type: cell-based; conditions: GABA EC3-5, drug concentration 100 nM
Procedure: Human […] (HEK-293T) were transiently transfected with full-length cDNAs encoding human (α2), or rat (α1, α3, α5, γ2L, β3) GABAA receptor subunits using calcium phosphate precipitation. Positively transfected cells were isolated by utilizing co-transfection of a plasmid encoding a surface antibody (pHook™-1, Invitrogen). 20-52 hours following transfection, cells were mixed with magnetic beads coated with antigen specific for the pHook antibody, isolated with a magnetic stand, and then plated onto coverslips and used for patch-clamp recordings 18-28 hours later.
Current responses to GABA were recorded in the whole-cell configuration, with cells voltage-clamped at −50 mV. The bath solution contained (in mM): 142 NaCl, 8.1 KCl, 6 MgCl2, 1 CaCl2), and 10 HEPES (4-(2-hydroxyethyl)-1-piperazineethanesulfonic acid) with pH=7.4 and osmolarity adjusted to 295-305 mOsm. The electrode (internal) solution consisted of (in mM); 153 KCl, 1 MgCl2, 5 K-EGTA (ethylene glycol-bis (β-aminoethyl ether N,N,N′N′-tetraacetate)), and 10 HEPES with pH=7.4 and osmolarity adjusted to 295-305 mOsm. […] Currents were recorded with an Axon 200B (Foster City, Calif.) patch clamp amplifier. […] Data were analyzed by two-way ANOVA followed by post-hoc Tukey's multiple comparison test. […]

[2] = system: motor performance on an inverted screen; assay: Rat inverted screen test (motor impairment); conditions: up to 30 mg/kg, rats, inverted screen
Description: The motor effects of Diazepam and KRM-II-81 were studied on the inverted screen. The inverted screen test is used to measure whether or not a test compound induces muscle relaxation. When a test subject is placed on a wire screen which is then inverted, the reaction is to climb to the opposite side so they are no longer hanging upside down.
Male, Sprague Dawley rats (Harlan Sprague Dawley, Indianapolis, Ind.) were used and weighed 90-110 g when evaluated in experiments. […] Rats were placed onto the top of a wire screen, which was then inverted so that the rats were hanging upside down.
Male Sprague-Dawley rats (n=5) were dosed i.p. (vehicle=1% carboxymethyl cellulose) with diazepam (3, 10, or 30 mg/kg), KRM-II-81 (10, 30, or 60 mg/kg) or HZ-166 (30 mg/kg) 30 minutes prior to testing. Rats were placed onto the top of a wire screen, which was then inverted so that the rats were hanging upside down. […] Results were analyzed using ANOVA (Dunnett's test: *P<0.05).
(§1) For the in vivo assays, minimal effective doses (MED) were calculated in mg/kg. MED was defined as the lowest dose administered that produced statistically significant protection compared to vehicle control in the anticonvulsant assays. The MED, or minimal toxic dose (MTD) for motor impairment, was the minimal dose required to produce statistically-significant impairment in motor performance. Doses tested are shown in the figures and tables and are generally dosed in ½ log increments. The protective index (PT) was calculated at the MTD/MED.

[3] = system: electroshock-induced seizures; assay: Mouse electroshock-induced seizure model; type: in vivo; conditions: mice
Procedure: This assay detects effects of compounds that produce generalized seizures and those that dampen seizure spread. Male, CD1 mice (Taconic Farms) were studied at weights of 21-32 g. Mice=10/dose) were used with Wahlquist Model H stimulator with 0.2 sec stimulation with corneal electrodes. […] Mice were euthanized immediately following the test. Tonic extension was used as the primary endpoint.
as §1

PTZ-induced clonus = assay: Pentylenetetrazole (PTZ, 35 mg/kg s.c.)-induced clonic convulsions; type: in vivo; conditions: for PTZ Clonus to Criteria 1: MED producing maximal protection (0% seizures); for PTZ Clonus Potency (MED): lowest dose with statistically significant protection; for PTZ Clonus Potency (MED) / protection against PTZ-induced clonus: PTZ 35 mg/kg s.c.
Procedure: After the inverted screen test, the rats were dosed with pentylenetetrazole (PTZ)(35 mg/kg, s.c.) in a volume of 1 ml/kg and placed in an observation cage (40.6×20.3×15.2 cm) with a floor containing […] of wood chip bedding material. PTZ dose was determined to be ˜EC97 for producing clonic convulsions.

[4] = system: immobility in forced-swim test; assay: Forced-swim assay; type: in vivo, mice
Procedure: Male NIH Swiss mice (Envigo, Indianapolis, Ind.) were studied. Mice were placed in clear plastic cylinders (diameter: 10 cm; height: 25 cm) filled with 6 cm of water (22-25° C.) for six min. […] The duration of immobility during the last four min of the six min test period was scored. A mouse was recorded as immobile when floating motionless or making only those movements necessary to keep its head above water.

[5] = system: motor performance on inverted screen
Procedure: Without prior pretraining, mice were placed on an 11 cm×14 cm square of round hole, perforated stainless steel mesh (18 holes/square inch, 3/16 inch diameter, ¼ inch staggered centers, 50% open area) mounted on a metal rod, 35 cm above the table top. The screen was slowly inverted such that the mouse was on the underside of the screen. Mice were then scored for 60 sec as follows: 0=climbed to top of screen, 1=hung onto bottom of screen, 2=fell off. Data were analyzed by ANOVA followed by post-hoc Dunnett's test.
The test compounds were suspended in 1% hydroxyethylcellulose/0.05% Tween 80/0.05% Dow antifoam. […] Compounds were administered in a volume of 10 ml/kg and were given 30 min prior to testing via the i.p. route of administration; diazepam was dosed orally, 30 min prior to testing.

PTZ seizure threshold = assay: Pentylenetetrazole (PTZ, i.v.)-induced seizure threshold; type: in vivo, rats
Procedure: Male […] Sprague-Dawley rats (Indianapolis, Ind.) were randomly assigned to treatment groups and dosed with vehicle (vehicle=1% carboxymethyl cellulose) with diazepam (0.1, 0.3, or 1 mg/kg) or test compound (3, 10, 30, or 60 mg/kg) 30 minutes prior to testing. Rats were placed in a restrainer and a winged infusion needle was inserted into the lateral tail vein. Intravenous infusion with 10 mg/ml PTZ at a rate of 0.5 ml/min was initiated until a clonic convulsion occurred, and the time to clonic convulsion was recorded in sec or a maximum of 4 min was recorded. Following infusion, rats are euthanized. The dose of PTZ required to elicit a clonic convulsion was calculated using the infusion rate, concentration of PTZ, time to clonic convulsion, and animal weight.

[6] = system: seizures in amygdala kindled rats; assay: Basolateral amygdala kindling; type: in vivo
Procedure: Seizure kindling models evaluate effects of drugs on the sensitization of the nervous system to seizure induction. In this test, drugs were evaluated for their ability to impact seizure parameters in rats that were fully kindled by daily electrical stimulation of their amygdala. Valproic acid was used as a positive control. Experiments were conducted using the general procedures of Zwart et al. (J. Pharmacol. Exp. Ther., 2014, 351:124-133). A bipolar electrode for electrical stimulation and EEG recording was stereotaxically implanted into one hemisphere of the basolateral amygdala (AP −2.2, ML −4.8, DV −8.5 mm, relative to bregma) of male Wistar rats. After post-operative recovery, electrical kindling begins, where a subthreshold constant current (400 μA, 1 ms, monophasic square-wave pulses, 60 Hz for 1 sec) is given once a day Monday-Friday for about 4-6 weeks until a rat is fully kindled. A fully kindled rat has experienced 10 consecutive stage 5 seizures or 10 of its last 12 were stage 5 according to the Racine Scale.
Twelve fully kindled rats were assigned to this study, and eight rats were selected and randomized to initial compound treatment groups from baseline after discharge threshold (ADT), seizure severity score, and after discharge duration (ADD). […] On test day, rats were dosed 30 min prior to beginning stimulation. After the pre-treatment, rats were stimulated using an ascending staircase sequence beginning at 10 μA and increasing in log unit steps of 10, 16, 25, 40, 65, 100, 160, 250, and 400 μA. Animals were stimulated until they were assigned a Seizure Severity Score for a visually observably seizure or they reached the 400 μA threshold limit. ADD was determined following testing. ADT was the current that induced a seizure; measurements were scale-adjusted to capture the stimulation scale change required to observe a seizure from the previous baseline to the ADT scored on test day. […] The average scale adjusted ADT was approximately 0.63 μA in vehicle treated rats.
Racine score of behavioral response to stimulation: 0=no behavioral response; 1=immobility, staring and/or facial clonus; 2=head nodding, jaw clonus, and/or tongue protrusion; 3=unilateral forelimb clonus; 4=bilateral forelimb clonus and/or rearing; 5=bilateral forelimb clonus with rearing and loss of balance.
After-Discharge Duration (ADD) is the duration of the first after-discharge.
ADT, ADD, and severity scores were analyzed by ANOVA. Seizure severity data was also analyzed by the nonparametric Skillings-Mack test, a generalization of the Friedman test for one-way repeated measures designs. Posthoc tests when reported were either by Dunnett's method (seizure severity) or using Wilcoxon sign rank tests (ADT and ADD). Valproic acid, used as a positive control was not used in ANOVA calculations.

SMILES: C#Cc1ccc2c(c1)C(c1ccccn1)=NCc1c(-c3nc(CC)no3)ncn1-2 [MP-III-080, 3-ethyl-5-(8-ethynyl-6-(pyridin-2-yl)-4H-benzo[f]imidazo[1,5-a][1,4]diazepin-3-yl)-1,2,4-oxadiazole]
- selectivity for α2 and α3 over α1 [1]: selective for α2 and α 3 over α1
- effect on motor performance [2]: without significant effect on motor performance
- Electroshock to Criteria ([3]; MED producing maximal protection (0% seizures)): 5.6 mg/kg
- PTZ Clonus to Criteria 1 (PTZ-induced clonus; rats): 10 mg/kg
- PTZ Clonus Potency (MED) (PTZ-induced clonus; rats): 10 mg/kg
- protection against PTZ-induced clonus (PTZ-induced clonus; rats): dose-dependently suppressed
- immobility in forced-swim assay ([4]; male NIH Swiss mice, i.p., 30 min prior): significantly decreased immobility time

SMILES: CN1C(=O)CN=C(c2ccccc2)c2cc(Cl)ccc21 [Diazepam, diazepam, reference compound]
- motor impairment on inverted screen ([5]; diazepam 22 mg/kg p.o., mice): still significant but not maximal
- motor impairment score on inverted screen test ([5]; diazepam 30 mg/kg p.o., prior data, out of 2.0): 1.8
- PTZ Threshold to Criteria (PTZ seizure threshold; MED for producing ≥2× PTZ seizure threshold at baseline): >1 mg/kg
- potency relative to KRM-II-81 and KRM-II-82 (PTZ seizure threshold; PTZ seizure threshold, rats): about 10 times
- PTZ Threshold Poteny (MED) (PTZ seizure threshold; lowest dose with statistically significant effect, rats, PTZ i.v.): 1 mg/kg
- effect on dose of PTZ required to induce convulsions (PTZ seizure threshold; rats, PTZ i.v. infusion, pretreatment 30 min): increased the dose of PTZ required to induce convulsions
- potency relative to KRM-II-81 to induce full seizure protection ([3]; electroshock): 5 ×
- Electroshock (minimal effective dose, MED) ([3]; lowest dose with statistically significant protection vs vehicle): 3 mg/kg
- protection against electroshock-induced seizures [3]: fully prevented
- PTZ Clonus to Criteria 1 (PTZ-induced clonus; rats): 10 mg/kg
- potency relative to KRM-II-81 to induce full seizure protection (PTZ-induced clonus; PTZ-induced clonus, rats): 10 ×
- convulsions (rats convulsing/tested) after PTZ (PTZ-induced clonus; diazepam 30 mg/kg p.o. + PTZ): 0/5
- PTZ Clonus Potency (MED) (PTZ-induced clonus; rats): 10 mg/kg
- protection against PTZ-induced clonus (PTZ-induced clonus; rats): fully prevented
- After-Discharge Duration to Criteria ([6]; MED for producing after-discharge duration ≤30 sec): >10 mg/kg
- After-Discharge Threshold to Criteria ([6]; MED for producing after-discharge threshold ≥3): >10 mg/kg
- Seizure Severity to Criteria ([6]; MED for producing seizure severity score ≤2): 10 mg/kg
- After-Discharge Duration Potency (MED) ([6]; amygdala kindled rats): >10 mg/kg
- After-Discharge Threshold Potency (MED) ([6]; amygdala kindled rats): 10 mg/kg
- Seizure Severity Poteny (MED) ([6]; amygdala kindled rats): 10 mg/kg
- effect on adjusted after-discharge threshold (ADT) ([6]; amygdala kindled rats): significantly increased
- effect on after-discharge duration (ADD) ([6]; amygdala kindled rats): trend for a significant effect
- effect on seizure severity score / kindling measures ([6]; amygdala kindled rats): decreased significantly
- Seizure free scores (seizure severity=0) ([6]; amygdala kindled rats, groups of 8): 2/8
- antidepressant-like effect in forced-swim assay ([4]; diazepam 22 mg/kg p.o. alone, mice): did not produce an antidepressant-like effect
